The values that follow come from publication PMC10184127 (Journal of Medicinal Chemistry, 2023).

For data set [1], the target named is AgAChE1 (Anopheles gambiae, UniProt Q869C3).
Data set [2] concerns the target hAChE (Homo sapiens, UniProt P22303).
For data set [3] the following is noted: at higher concentrations.

Chain of AgAChE1 (Q869C3 39-737): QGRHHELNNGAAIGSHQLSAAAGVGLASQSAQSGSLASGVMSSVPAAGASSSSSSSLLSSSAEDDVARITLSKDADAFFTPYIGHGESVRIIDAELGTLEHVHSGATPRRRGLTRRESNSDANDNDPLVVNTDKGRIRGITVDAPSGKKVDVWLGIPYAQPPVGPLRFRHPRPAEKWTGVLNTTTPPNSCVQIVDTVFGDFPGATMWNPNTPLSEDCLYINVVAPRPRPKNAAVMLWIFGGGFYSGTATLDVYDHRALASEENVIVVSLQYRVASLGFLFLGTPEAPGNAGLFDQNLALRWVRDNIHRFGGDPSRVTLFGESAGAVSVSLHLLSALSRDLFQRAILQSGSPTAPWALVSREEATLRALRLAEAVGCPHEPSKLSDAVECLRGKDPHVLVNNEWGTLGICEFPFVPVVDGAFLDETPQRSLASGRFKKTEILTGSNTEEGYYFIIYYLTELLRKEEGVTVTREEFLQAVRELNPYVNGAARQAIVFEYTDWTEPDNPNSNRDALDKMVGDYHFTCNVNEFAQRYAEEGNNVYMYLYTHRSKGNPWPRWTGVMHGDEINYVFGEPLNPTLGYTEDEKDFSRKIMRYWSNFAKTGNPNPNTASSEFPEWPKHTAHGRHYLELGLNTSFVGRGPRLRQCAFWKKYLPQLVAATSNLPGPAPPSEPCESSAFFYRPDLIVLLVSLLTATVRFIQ
Chain of hAChE (P22303 32-614): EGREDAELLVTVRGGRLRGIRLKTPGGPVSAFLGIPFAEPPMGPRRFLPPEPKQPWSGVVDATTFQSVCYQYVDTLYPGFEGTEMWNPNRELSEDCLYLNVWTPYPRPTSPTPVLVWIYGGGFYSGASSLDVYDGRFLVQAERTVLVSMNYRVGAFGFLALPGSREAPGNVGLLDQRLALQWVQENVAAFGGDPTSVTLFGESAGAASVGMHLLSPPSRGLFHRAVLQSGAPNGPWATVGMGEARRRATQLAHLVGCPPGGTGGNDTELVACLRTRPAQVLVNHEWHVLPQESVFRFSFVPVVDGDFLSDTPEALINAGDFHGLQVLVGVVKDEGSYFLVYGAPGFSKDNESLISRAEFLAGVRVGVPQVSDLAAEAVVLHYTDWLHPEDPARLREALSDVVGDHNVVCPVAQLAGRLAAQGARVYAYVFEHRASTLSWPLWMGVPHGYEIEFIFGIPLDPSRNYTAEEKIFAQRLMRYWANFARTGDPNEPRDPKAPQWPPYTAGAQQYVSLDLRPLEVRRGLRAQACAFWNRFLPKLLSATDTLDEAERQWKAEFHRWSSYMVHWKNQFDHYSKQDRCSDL

In the case of `Cl.O=C1CSC(c2ccc(F)cc2)N1CCNC1CC1` (stereo not drawn) [compound 49, 3-(2-(Cyclopropylamino)ethyl)-2-(4-fluorophenyl)thiazolidin-4-one Hydrochloride], the “loss of potency vs 3-carbon chain dimethylamine analogue” value in data set [1] is 13 fold. Consider `CN(C)CCN1C(=O)CSC1c1ccc(F)cc1.Cl` (stereo not drawn) [compound 37, 3-(2-(Dimethylamino)ethyl)-2-(4-fluorophenyl)thiazolidin-4-one Hydrochloride], for which, in data set [2], the “activity against hAChE” value was “inactive”. On to `CN(C)CCN1C(=O)CSC1c1cccc2ccccc12.Cl` (stereo not drawn) [compound 40, 3-(2-(Dimethylamino)ethyl)-2-(naphthalen-1-yl)thiazolidin-4-one Hydrochloride], for which the “activity against hAChE” value in data set [2] was “inactive”.

Take `CNCCN1C(=O)CSC1c1cccc2ccccc12.Cl` (stereo not drawn) [compound 54, N-Methyl-2-(2-(naphthalen-1-yl)-4-oxothiazolidin-3-yl)ethan-1-aminium Chloride]: the “times weaker binders than their tertiary amine analogues” value in data set [1] is “over 10 times”. Regarding `[N-]=[N+]=NCCCN1C(=O)CSC1c1ccccc1` (stereo not drawn) [compound 17, 3-(3-Azidopropyl)-2-phenylthiazolidin-4-one], in data set [1], the “IC50 (μM) AgAChE1” value was “Inactive” and the “inhibitory activity towards AgAChE1” value is given as “no detectable inhibitory activity”. As for `O=C1CSC(c2ccccc2)N1CCc1ccc(F)cc1` (stereo not drawn) [compound 9, 3-(4-Fluorophenethyl)-2-phenylthiazolidin-4-one], in data set [1], the “IC50 (μM) AgAChE1” value is recorded as “Inactive” and the “inhibitory activity towards AgAChE1” value is “no detectable inhibitory activity”.

As for `CN(C)CCCN1C(=O)CSC1c1cccc2ccccc12.Cl` (stereo not drawn) [compound 36, 3-(3-(Dimethylamino)propyl)-2-(naphthalen-1-yl)thiazolidin-4-one Hydrochloride], the solubility entry in data set [3] is reported as “reduced its solubility at higher concentrations”. With `CC(C)NCCN1C(=O)CSC1c1cccc2ccccc12.Cl` (stereo not drawn) [compound 43, 3-(2-(Isopropylamino)ethyl)-2-(naphthalen-1-yl)thiazolidin-4-one Hydrochloride], the “times weaker binders than their tertiary amine analogues” value in data set [1] is given as “over 10 times”. As to `CN(C)CCN1C(=O)CSC1c1ccc(Cl)cc1Cl.Cl` (stereo not drawn) [compound 38, 2-(2,4-Dichlorophenyl)-3-(2-(dimethylamino)ethyl)thiazolidin-4-one Hydrochloride], in data set [2], the “activity against hAChE” value was “inactive”. For `CN(C)CCN1C(=O)CSC1c1cccc(F)c1F.Cl` (stereo not drawn) [compound 39, 2-(2,3-Difluorophenyl)-3-(2-(dimethylamino)ethyl)thiazolidin-4-one Hydrochloride], the “activity against hAChE” value in data set [2] is “inactive”.
